# Test results published in patent US20220008390A1, “COMPOSITIONS AND METHODS FOR TREATING PAIN AND/OR INFLAMMATION” (Neumentum, Inc., priority 2020, published 2022).
# Assays:
# [1] = tested on: neuropathic pain; assay: 12 week study in subjects with neuropathic pain; assay type: in vivo, human; conditions: arms including 1000 and 2000 mg/day
# Description: Subjects are diagnosed with neuropathic pain (chronic and ongoing for more than 3 months in contrast to an acute injury of nerve or nervous system).
# In case of low back pain (mixed pain) a possible, probable or definite neuropathic pain component can be diagnosed via screening tools at screening/baseline visits, e.g. PAIN DETECT, LANSS, DN-4).
# A 12 week study is designed to compare 5-Methyl-1H-pyrazole-3-carboxylic acid (4-hydroxy-phenyl)-amide (Compound 1) to placebo and to a standard (pregabalin).
# There are 2-3 dosing arms for Compound 1 (including 1000 and 2000 mg/day).
# [2] = tested on: rat formalin (1%) model; assay: rat formalin (1%) test; assay type: in vivo; conditions: 300 mg/kg, oral, 1 hr pretreatment; 1% formalin intraplantar; FIG. 1
# Description: 5-Methyl-1H-pyrazole-3-carboxylic acid (4-hydroxy-phenyl)-amide (Compound 1) was tested in the rat formalin (1%) model. The rat formalin test is a preclinical model of human painful conditions.
# The formalin test in rat (or mice) is a valid and reliable model of nociception (sensation of pain) and is sensitive for various classes of analgesic drugs. Formalin is a solution of formaldehyde in water. The subcutaneous injection of dilute formalin induces pain in humans and nociceptive (presumptive of pain) behaviors in animals. Since it is painful when it is injected in humans, it is used as an animal model that is considered translational to human pain. […]
# In the formalin model, pain response scoring is determined by recording the pain-like behaviors per unit of time including licking, flinching, or raising or shaking of the injected paw. […]
# For all Groups, animals were acclimated to the observation chamber for about 15 minutes immediately prior to formalin injection. All animals received an intraplantar subcutaneous injection of 50 μL of 1% formalin into the left hind paw and were then be placed in the observation chamber immediately and formalin-evoked spontaneous nociceptive behaviors in the rats was continuously recorded for 0-60 min using a commercial camcorder. […]
# [3] = tested on: moderate to severe pain after third molar extractions; assay: single-dose clinical study, pain after third molar extractions (pain intensity difference); assay type: in vivo, human; conditions: 1000 mg single dose, up to 24 hours post-dose; FIG. 3
# Description: A single-center, randomized, double-blind, placebo- and active-controlled, parallel group study was performed to evaluate the efficacy, safety and pharmacokinetic profile of a single dose of 5-Methyl-1H-pyrazole-3-carboxylic acid (4-hydroxy-phenyl)-amide (Compound 1), over a 24-hour on-site period in moderate to severe pain after third molar extractions in up to 280 male subjects was performed. Healthy male subjects, ages 18 to 45 years, were screened by medical history, vital signs, electrocardiogram (ECG), and clinical laboratory tests. Eligible subjects returned to the clinic on the day of surgery and completed baseline vital signs and clinical laboratory tests. The subjects were randomized such that one group received placebo (Group 1), one group received 1000 mg of Compound 1 (Group 2), and one group received 1000 mg acetaminophen (Group 3). All Groups received the treatment dose within up to 4.5 hours after oral surgery (third molar extraction). Pain intensity/pain relief assessments were collected at 0.25, 0.5, 0.75, 1, 1.5, 2, hourly up to 12, 16, and 24 hours post-dose and at time of first rescue medication (oral ibuprofen). […] This unexpected result makes the compounds of the present invention suitable for chronic pain and/or inflammatory indications as disclosed herein.
# [4] = tested on: mechanical allodynia after severe spinal cord contusion injury; assay: mechanical allodynia after severe spinal cord contusion injury (von Frey, Up-Down); assay type: in vivo, rat; conditions: 10 mg/kg/day by gavage for 7 days; day 28 post surgery
# Description: 5-Methyl-1H-pyrazole-3-carboxylic acid (4-hydroxy-phenyl)-amide (Compound 1) treatment is tested in the suppression of the development of mechanical allodynia after severe spinal cord contusion injury in the rat. Thirteen week-old female Lewis rats (Charles River, Sulzfeld Germany) are housed under a 12:12 h dark/light regime and allowed free access to water and food. After one week of habituation the animals undergo general anesthesia with a mixture of isoflurane and air (induction: 5% isoflurane, maintenance: 2.2% isofluorane). […] The following groups were used: • Group I: SCI model+vehicle (1.5% Carboxymethylcellulose (CMC) in sterile water) by gavage for seven days • Group 2: SCI model+Compound 1 (10 mg/kg/day) in vehicle by gavage for 7 days The mechanical sensitivity response is measured as the direct pressure stimulus required for eliciting foot withdrawal in nonrestrained conditions. […] The 50% threshold force needed for paw withdrawal is calculated for both hind paws of each rat and the mean value of both hind paws is used to represent the mechanical sensitivity of this animal. The mechanical sensitivity (indicated by the 50% threshold force for paw withdrawals) is determined by the Up-Down method using von Frey filaments. […]
# [5] = tested on: carrageenan-induced paw-edema; assay: rat carrageenan-induced paw-edema model; assay type: in vivo
# Description: 5-Methyl-1H-pyrazole-3-carboxylic acid (4-hydroxy-phenyl)-amide (Compound 1) was tested in the rat carrageenan paw-edema model. The rat carrageenan model is a preclinical model of inflammation and anti-inflammatory efficacy. Generally, animals are injected with carrageenan in one hind footpad, usually, half an hour or an hour after they are treated with the test compound while the other footpad is injected with saline as a control. The measurement of paw volume/thickness is then performed at specified time points. The objective of this study was to evaluate the effect of 5-Methyl-1H-pyrazole-3-carboxylic acid (4-hydroxy-phenyl)-amide (Compound 1) on paw edema in rat induced by intra-plantar injection of i-Carrageenan into the left hind paw. [table] On Day 1, carrageenan (1%; 100 uL) was injected subcutaneously into the plantar aspect of the left hindpaw of rats from all groups. Carrageenan injection was performed in conscious rats by restraining with hand and injection was done in the middle of the plantar surface area. The carrageenan solution was vortexed/stirred before each injection. • Route of Administration Oral gavage (PO) • Dosing Regimen: Single dose on Day 1, 1 h before Carrageenan injection. • Method: The day of dosing was designated as Day 1. The animals were not sedated. The volume for each dose was administered over one injection based on the body weight. Paw volume (left hind paw) was measured before carrageenan injection (baseline) and then at 1, 3, 6 and 8 hours (+/−2 minutes) after carrageenan injection (on Day 1). Measurements will be done using a digital plethysmometer as below: In brief, the Plethysmometer is a volume meter, designed for accurate measurements of inflammation-induced swelling. It consists of a water filled cell into which the paw along with the ankle joint is dipped. A transducer records the differences in water level caused by volume displacement and provides LCD readout of the exact volume gain due to swelling. Limb volumes were recorded onto a data sheet as they were measured. One trial per animal were recorded for each time point. […]
# [6] = pharmacokinetic profile in third molar extraction study; assay type: in vivo; conditions: human; plasma, 1000 mg single dose, male subjects
# Description: A single-center, randomized, double-blind, placebo- and active-controlled, parallel group study was performed to evaluate the efficacy, safety and pharmacokinetic profile of a single dose of 5-Methyl-1H-pyrazole-3-carboxylic acid (4-hydroxy-phenyl)-amide (Compound 1), over a 24-hour on-site period in moderate to severe pain after third molar extractions in up to 280 male subjects was performed.
# The subjects were randomized such that one group received placebo (Group 1), one group received 1000 mg of Compound 1 (Group 2), and one group received 1000 mg acetaminophen (Group 3). All Groups received the treatment dose within up to 4.5 hours after oral surgery (third molar extraction).
# Pain intensity/pain relief assessments were collected at 0.25, 0.5, 0.75, 1, 1.5, 2, hourly up to 12, 16, and 24 hours post-dose and at time of first rescue medication (oral ibuprofen). […] This unexpected result makes the compounds of the present invention suitable for chronic pain and/or inflammatory indications as disclosed herein.
smiles,measurement,setting,value
"Cc1cc(C(=O)Nc2ccc(O)cc2)n[nH]1 [Compound 1, 5-Methyl-1H-pyrazole-3-carboxylic acid (4-hydroxy-phenyl)-amide]",pain intensity and signs and symptoms of neuropathy/hyperexcitability vs. placebo and standard (pregabalin),[1],shows improvement vs. placebo and improvement or comparable effects vs. standard
same,nociceptive behaviors in Phase II of the rat formalin test,[2],inhibited nociceptive behaviors
same,Pain intensity difference from baseline (PID) score compared with 1000 mg acetaminophen,[3],significantly greater and longer lasting PID score
same,mechanical hypersensitivity (50% threshold force for paw withdrawal),[4],mechanical hypersensitivity is reduced
same,carrageenan-induced paw-edema (paw volume),"[5]; 300 mg/kg and 600 mg/kg, orally, single dose 1 h before carrageenan, FIG. 2A",dose-relatedly inhibited carrageenan-induced paw-edema
same,"AUC of paw volume data, 300 mg/kg dose compared to 600 mg/kg dose",[5]; FIG. 2B,statistically significant difference
same,duration of the effect of a single oral dose,"[5]; single oral dose, paw-edema inhibition",> 8 h
same,half-life,[6],~600 min
